Test results as given in US9962369B2, “Methods and compositions for transdermal delivery” (SPRAYABLE HOLDINGS, INC., priority 2014, dated 2018).

Tested on: human skin tissue
Test: Penetration rate of AI compound in AI-helper composition through human skin in vitro, modified Franz cells
Type: in vitro ADME
Settings: for Skin penetration rate of Al compound: Al compound 0.5% w/v; for Skin penetration rate of Al compound / Skin penetration rate of AI compound: 25 °C; for Skin penetration rate of alpha-lipoic acid: 20° C.
Experimental: Penetration rate of AI compound in the AI-helper composition through human skin were measured in vitro by modified Franz cells. A Franz cell had two chambers: the top sample chamber and the bottom receiving chamber. The human skin tissue (450-500 μm thick) that separated the top and the receiving chambers was isolated from the anterior or posterior thigh areas.

[1] = 2-(Diethylamino)ethyl 2-(4-isobutylphenyl)propionate hydrochloride 6% w/v, water
[2] = D-Phenylalanine isopropyl ester hydrochloride 6% w/v, water
[3] = Dialkylaminoalkyl 2-(4-isobutylphenyl)propionate: None
[4] = L-Phenylalanine isopropyl ester hydrochloride 6% w/v, water
[5] = no isoleucine ester (None), AI compound 0.5 % w/v in water
[6] = no leucine ester (None), AI compound 0.5 % w/v in water
[7] = no tryptophan ester (None), AI compound 0.5 % w/v in water
[8] = with D-isoleucine isopropyl ester hydrochloride 6 % w/v in water, AI compound 0.5 % w/v
[9] = with D-leucine isopropyl ester hydrochloride 6 % w/v in water, AI compound 0.5 % w/v
[10] = with L-isoleucine isopropyl ester hydrochloride 6 % w/v in water, AI compound 0.5 % w/v
[11] = with L-leucine isopropyl ester hydrochloride 6 % w/v in water, AI compound 0.5 % w/v
[12] = with D-tryptophan isopropyl ester hydrochloride 6 % w/v in water, AI compound 0.5 % w/v
[13] = with L-tryptophan isopropyl ester hydrochloride 6 % w/v in water, AI compound 0.5 % w/v

CC1=C(/C=C/C(C)=C/C=C/C(C)=C/C=C/C=C(C)/C=C/C=C(C)/C=C/C2=C(C)C(=O)[C@@H](O)CC2(C)C)C(C)(C)C[C@H](O)C1=O [Astaxanthin]
Skin penetration rate of Al compound [1]: 12.331 ± 2.182 μg/cm^2/h
Skin penetration rate of Al compound [2]: 12.431 ± 2.178 μg/cm^2/h
Skin penetration rate of Al compound [3]: 0.019 ± 0.010 μg/cm^2/h
Skin penetration rate of Al compound [4]: 12.341 ± 2.042 μg/cm^2/h
Skin penetration rate of Al compound (Phenylalanine ester: None): 0.019 ± 0.011 μg/cm^2/h
Skin penetration rate of AI compound [5]: 0.013 ± 0.009 μg/cm^2/h
Skin penetration rate of AI compound [6]: 0.010 ± 0.008 μg/cm^2/h
Skin penetration rate of AI compound [7]: 0.012 ± 0.013 μg/cm^2/h
Skin penetration rate of AI compound [8]: 11.354 ± 2.452 μg/cm^2/h
Skin penetration rate of AI compound [9]: 11.134 ± 2.183 μg/cm^2/h
Skin penetration rate of AI compound [10]: 11.431 ± 2.312 μg/cm^2/h
Skin penetration rate of AI compound [11]: 11.251 ± 2.112 μg/cm^2/h

Cc1ncc(CO)c(CO)c1O.Cl [Vitamin B6]
Skin penetration rate of Al compound [2]: 16.531 ± 2.106 μg/cm^2/h
Skin penetration rate of Al compound [3]: 0.023 ± 0.027 μg/cm^2/h
Skin penetration rate of Al compound [4]: 16.751 ± 2.012 μg/cm^2/h
Skin penetration rate of Al compound (Phenylalanine ester: None): 0.057 ± 0.011 μg/cm^2/h
Skin penetration rate of AI compound [5]: 0.022 ± 0.017 μg/cm^2/h
Skin penetration rate of AI compound [6]: 0.029 ± 0.035 μg/cm^2/h
Skin penetration rate of AI compound [7]: 0.059 ± 0.031 μg/cm^2/h
Skin penetration rate of AI compound [8]: 13.468 ± 2.211 μg/cm^2/h
Skin penetration rate of AI compound [12]: 17.131 ± 2.332 μg/cm^2/h
Skin penetration rate of AI compound [10]: 13.632 ± 2.125 μg/cm^2/h
Skin penetration rate of AI compound [13]: 17.251 ± 2.415 μg/cm^2/h

O=C(O)CCCCC1CCSS1 (stereo not drawn) [Alpha-lipoic acid]
Skin penetration rate of alpha-lipoic acid (0.5% alpha-lipoic acid without helper esters): 0.071 ± 0.063 μg/cm^2/h
Skin penetration rate of Al compound [1]: 30.478 ± 2.982 μg/cm^2/h
Skin penetration rate of Al compound [2]: 31.796 ± 3.176 μg/cm^2/h
Skin penetration rate of Al compound [3]: 0.056 ± 0.032 μg/cm^2/h
Skin penetration rate of Al compound [4]: 32.878 ± 3.568 μg/cm^2/h
Skin penetration rate of Al compound (Phenylalanine ester: None): 0.058 ± 0.047 μg/cm^2/h
Skin penetration rate of alpha-lipoic acid (alpha-lipoic acid 0.5% w/v, Tryptophan isopropyl ester•HA 6% w/v, HA = 1/2H2SO4, water): 33.928 ± 2.876 μg/cm^2/h
Skin penetration rate of alpha-lipoic acid (alpha-lipoic acid 0.5% w/v, Tryptophan isopropyl ester•HA 6% w/v, HA = 1/3H3PO4, water): 34.321 ± 2.867 μg/cm^2/h
Skin penetration rate of alpha-lipoic acid (alpha-lipoic acid 0.5% w/v, Tryptophan isopropyl ester•HA 6% w/v, HA = 2/3H3PO4, water): 34.691 ± 3.511 μg/cm^2/h
Skin penetration rate of alpha-lipoic acid (alpha-lipoic acid 0.5% w/v, Tryptophan isopropyl ester•HA 6% w/v, HA = Acetic acid, water): 35.006 ± 2.892 μg/cm^2/h
Skin penetration rate of alpha-lipoic acid (alpha-lipoic acid 0.5% w/v, Tryptophan isopropyl ester•HA 6% w/v, HA = Benzoic acid, water): 34.665 ± 3.019 μg/cm^2/h
Skin penetration rate of alpha-lipoic acid (alpha-lipoic acid 0.5% w/v, Tryptophan isopropyl ester•HA 6% w/v, HA = Butyric acid, water): 35.178 ± 3.598 μg/cm^2/h
Skin penetration rate of alpha-lipoic acid (alpha-lipoic acid 0.5% w/v, Tryptophan isopropyl ester•HA 6% w/v, HA = Citric acid, water): 35.371 ± 3.587 μg/cm^2/h
Skin penetration rate of alpha-lipoic acid (alpha-lipoic acid 0.5% w/v, Tryptophan isopropyl ester•HA 6% w/v, HA = H2SO4, water): 33.780 ± 2.891 μg/cm^2/h
Skin penetration rate of alpha-lipoic acid (alpha-lipoic acid 0.5% w/v, Tryptophan isopropyl ester•HA 6% w/v, HA = HBr, water): 35.211 ± 3.285 μg/cm^2/h
Skin penetration rate of alpha-lipoic acid (alpha-lipoic acid 0.5% w/v, Tryptophan isopropyl ester•HA 6% w/v, HA = HCl, water): 35.456 ± 2.476 μg/cm^2/h
Skin penetration rate of alpha-lipoic acid (alpha-lipoic acid 0.5% w/v, Tryptophan isopropyl ester•HA 6% w/v, HA = HF, water): 34.673 ± 3.156 μg/cm^2/h
Skin penetration rate of alpha-lipoic acid (alpha-lipoic acid 0.5% w/v, Tryptophan isopropyl ester•HA 6% w/v, HA = HI, water): 34.467 ± 2.583 μg/cm^2/h
Skin penetration rate of alpha-lipoic acid (alpha-lipoic acid 0.5% w/v, Tryptophan isopropyl ester•HA 6% w/v, HA = Lactic acid, water): 35.007 ± 2.879 μg/cm^2/h
Skin penetration rate of AI compound [5]: 0.057 ± 0.036 μg/cm^2/h
Skin penetration rate of AI compound [6]: 0.051 ± 0.023 μg/cm^2/h
Skin penetration rate of AI compound [7]: 0.071 ± 0.063 μg/cm^2/h
Skin penetration rate of AI compound [8]: 28.013 ± 2.078 μg/cm^2/h
Skin penetration rate of AI compound [9]: 27.476 ± 2.116 μg/cm^2/h
Skin penetration rate of AI compound [12]: 35.456 ± 2.476 μg/cm^2/h
Skin penetration rate of AI compound [10]: 28.897 ± 2.126 μg/cm^2/h
Skin penetration rate of AI compound [11]: 28.377 ± 2.378 μg/cm^2/h
Skin penetration rate of AI compound [13]: 36.378 ± 2.978 μg/cm^2/h

NCCS(=O)(=O)O [Taurine]
Skin penetration rate of Al compound [1]: 8.711 ± 1.871 μg/cm^2/h
Skin penetration rate of Al compound [2]: 8.339 ± 2.178 μg/cm^2/h
Skin penetration rate of Al compound [3]: 0.012 ± 0.006 μg/cm^2/h
Skin penetration rate of Al compound [4]: 8.372 ± 2.237 μg/cm^2/h
Skin penetration rate of Al compound (Phenylalanine ester: None): 0.011 ± 0.006 μg/cm^2/h
Skin penetration rate of AI compound [5]: 0.009 ± 0.007 μg/cm^2/h
Skin penetration rate of AI compound [6]: 0.008 ± 0.009 μg/cm^2/h
Skin penetration rate of AI compound [7]: 0.005 ± 0.008 μg/cm^2/h
Skin penetration rate of AI compound [8]: 7.521 ± 2.312 μg/cm^2/h
Skin penetration rate of AI compound [9]: 7.231 ± 2.386 μg/cm^2/h
Skin penetration rate of AI compound [12]: 9.131 ± 2.321 μg/cm^2/h
Skin penetration rate of AI compound [10]: 7.247 ± 2.076 μg/cm^2/h
Skin penetration rate of AI compound [11]: 7.175 ± 2.257 μg/cm^2/h
Skin penetration rate of AI compound [13]: 9.172 ± 2.117 μg/cm^2/h

Vitamin E
Skin penetration rate of Al compound [1]: 19.783 ± 4.025 μg/cm^2/h
Skin penetration rate of Al compound [2]: 21.363 ± 2.015 μg/cm^2/h
Skin penetration rate of Al compound [3]: 0.012 ± 0.006 μg/cm^2/h
Skin penetration rate of Al compound [4]: 21.357 ± 3.120 μg/cm^2/h
Skin penetration rate of Al compound (Phenylalanine ester: None): 0.016 ± 0.011 μg/cm^2/h
Skin penetration rate of AI compound [5]: 0.016 ± 0.009 μg/cm^2/h
Skin penetration rate of AI compound [6]: 0.012 ± 0.007 μg/cm^2/h
Skin penetration rate of AI compound [7]: 0.008 ± 0.008 μg/cm^2/h
Skin penetration rate of AI compound [8]: 19.321 ± 3.012 μg/cm^2/h
Skin penetration rate of AI compound [9]: 19.723 ± 3.046 μg/cm^2/h
Skin penetration rate of AI compound [12]: 22.783 ± 3.145 μg/cm^2/h
Skin penetration rate of AI compound [10]: 19.412 ± 3.076 μg/cm^2/h
Skin penetration rate of AI compound [11]: 19.611 ± 3.126 μg/cm^2/h
Skin penetration rate of AI compound [13]: 23.657 ± 4.120 μg/cm^2/h

N[C@@H](CCC(=O)N[C@@H](CS)C(=O)NCC(=O)O)C(=O)O [Glutathione]
Skin penetration rate of Al compound [1]: 16.356 ± 3.011 μg/cm^2/h
Skin penetration rate of Al compound [2]: 17.526 ± 2.451 μg/cm^2/h
Skin penetration rate of Al compound [3]: 0.012 ± 0.010 μg/cm^2/h
Skin penetration rate of Al compound [4]: 17.358 ± 2.259 μg/cm^2/h
Skin penetration rate of Al compound (Phenylalanine ester: None): 0.016 ± 0.009 μg/cm^2/h
Skin penetration rate of AI compound [5]: 0.013 ± 0.011 μg/cm^2/h
Skin penetration rate of AI compound [6]: 0.011 ± 0.008 μg/cm^2/h
Skin penetration rate of AI compound [7]: 0.008 ± 0.013 μg/cm^2/h
Skin penetration rate of AI compound [8]: 14.581 ± 2.183 μg/cm^2/h
Skin penetration rate of AI compound [9]: 14.121 ± 2.131 μg/cm^2/h
Skin penetration rate of AI compound [12]: 18.126 ± 3.451 μg/cm^2/h
Skin penetration rate of AI compound [10]: 14.698 ± 2.321 μg/cm^2/h
Skin penetration rate of AI compound [11]: 14.128 ± 2.119 μg/cm^2/h
Skin penetration rate of AI compound [13]: 17.978 ± 3.479 μg/cm^2/h

Vitamin A
Skin penetration rate of Al compound [1]: 18.347 ± 3.132 μg/cm^2/h
Skin penetration rate of Al compound [2]: 20.015 ± 3.025 μg/cm^2/h
Skin penetration rate of Al compound [3]: 0.021 ± 0.011 μg/cm^2/h
Skin penetration rate of Al compound [4]: 20.177 ± 3.241 μg/cm^2/h
Skin penetration rate of Al compound (Phenylalanine ester: None): 0.026 ± 0.015 μg/cm^2/h
Skin penetration rate of AI compound [5]: 0.015 ± 0.008 μg/cm^2/h
Skin penetration rate of AI compound [6]: 0.015 ± 0.011 μg/cm^2/h
Skin penetration rate of AI compound [7]: 0.018 ± 0.012 μg/cm^2/h
Skin penetration rate of AI compound [8]: 16.515 ± 3.212 μg/cm^2/h
Skin penetration rate of AI compound [9]: 16.315 ± 3.172 μg/cm^2/h
Skin penetration rate of AI compound [12]: 21.715 ± 3.685 μg/cm^2/h
Skin penetration rate of AI compound [10]: 16.656 ± 3.021 μg/cm^2/h
Skin penetration rate of AI compound [11]: 16.357 ± 3.121 μg/cm^2/h
Skin penetration rate of AI compound [13]: 20.977 ± 3.741 μg/cm^2/h
